Test results reported in patent US8133686B2 (Van Andel Research Institute, priority 2008, dated 2012).
Where two headings read alike, the source gives them in different places.

What was measured:
SN12C xenografts = experiment: SN12C xenograft model, intermittent sunitinib dosing (3 weeks on, 3 weeks off)
RCC cell lines = experiment: cells; conditions: Homo sapiens
A-498 xenografts = experiment: A-498 xenograft model, intermittent sunitinib dosing (3 weeks on, 3 weeks off)
HUVEC and HLMVEC cells = experiment: cells; conditions: Homo sapiens
[1] = preliminary studies (data not shown)
[2] = 40 mg/kg, 3-weeks-on and 3-weeks-off

CCN(CC)CCNC(=O)c1c(C)[nH]c(/C=C2\C(=O)Nc3ccc(F)cc32)c1C [SU11248, sunitinib]
treated SN12C xenograft mice showing phenotypic resistance (SN12C xenografts; 80 mg/kg, 3-weeks-on and 3-weeks-off): 33%
minimal required dosage to induce stable disease (SN12C xenografts; [1]): 80 mg/kg
IC50 (RCC cell lines; read-out: IC50 on proliferation of RCC cell lines, similar under both conditions: normal culture/complete medium and ligand-dependent/PDGF-only): 4 to 10 µM
IC50 (RCC cell lines; read-out: IC50 on proliferation of RCC cells, complete medium): 4 to 10 µM
IC50 (RCC cell lines; read-out: IC50 on proliferation of RCC cells, ligand-dependent condition): 2 to 6 µM
treated A-498 xenograft mice showing phenotypic resistance (A-498 xenografts; [2]): 38%
treated A-498 xenograft mice showing phenotypic resistance (resistant/treated) (A-498 xenografts; [2]): 13/34
minimal required dosage to induce stable disease (A-498 xenografts; [1]): 40 mg/kg
IC50 (HUVEC and HLMVEC cells; read-out: IC50 on proliferation of endothelial cell lines): ~0.01 µM
IC50 (HUVEC and HLMVEC cells; read-out: IC50 on proliferation of endothelial cells): ~6 µM
